Assays:
[1] = in water; cited from earlier work
colitis-induced mice = test: in vivo efficacy in dextran sodium sulfate colitis-induced mice; design: species or system C57BL/6 mice; details: oral, 10 mg/kg once daily for 8 days, DSS colitis mice, day 9
Method: (§1) Before inducing colitis, 8-week-old C57BL/6 mice were raised under standard conditions at 21° C. to 22° C. in a 12-hour light/dark cycle for 7 days. On the day of the experiment (Day 0), mice were randomly divided into five groups: a healthy control group and four experimental groups [dextran sodium sulfate administration group (DSS), dextran sodium sulfate and phosphate-buffer saline (PBS) administration group (DSS+PBS), dextran sodium sulfate and infliximab administration group (DSS+IFX), and dextran sodium sulfate and EFA-AC-IFX administration group (DSS+EFA-AC-IFX)]. Colitis was induced in mice by adding 2.0% (w/v) dextran sodium sulfate to drinking water.
(§2) To investigate the therapeutic effect of nanoparticles, colitis-induced mice in each experimental group were orally administered with 200 μL of PBS, infliximab (10 mg/kg), or EFA-AC-IFX (10 mg/kg) once daily for 8 days. On Day 8, drinking water containing dextran sodium sulfate was replaced with pure water. […]
To evaluate the therapeutic efficacy of EFA-AC-IFX for colitis, mouse colon tissues were histologically analyzed using hematoxylin-eosin (H&E) staining. […] The severity of colitis in each colonic section was assessed using a blinded approach by measuring mucosal features, such as epithelial damage, mucosal edema, and inflammatory cell infiltration of the mucosa.

TNF-α = TNF-α concentration in colonic samples of colitis-induced mice (ELISA); assay type: in vivo, C57BL/6 mice; details: oral, 10 mg/kg once daily for 8 days, DSS colitis mice, compared to control group
Method: as §1
as §2, with “water. During the experiment, changes in body weight, stool consistency, and the presence of blood in the stool or anus were checked daily.” for “water.”
The level of TNF-α, one of the important inflammatory mediators involved in the pathogenesis of ulcerative colitis, is increased by inducing colitis in mice. Therefore, the concentration of TNF-α in colonic samples obtained from each experimental group was quantified using a TNF-α ELISA kit.

**Q.** Which water solubility [1] does the source give for Nc1nc2ncc(CNc3ccc(C(=O)N[C@@H](CCC(=O)O)C(=O)O)cc3)nc2c(=O)[nH]1 [folic acid] here?
**A.** 0.0016 mg/g

**Q.** With Infliximab as the compound, how does the colon length (colitis-induced mice) read?
**A.** 6.2±0.25 cm

**Q.** What about the “concentration of TNF-α in colonic samples” value (TNF-α) of the same compound?
**A.** significantly increased compared to the control group

Reference: patent publication US20250281625A1, “FOLIC ACID-CONJUGATED AMINOCLAY BASED NANOCOMPOSITES FOR THE SITE-SPECIFIC DRUG DELIVERY, METHOD FOR THEIR PREPARATION AND THEIR USE” (Dongguk University Industry-Academic Cooperation Foundation, priority 2021, published 2025)
